Laboratory results reported in US8822146B2, “Derivatization of biomolecules by covalent coupling of non-cofactor compounds using methyltransferases” (Vilnius University, priority 2009, dated 2014).

Columns and labels:
M.Hhal = M.Hhal (Haemophilus parahaemolyticus, UniProt P05102); test: DNA protection assay: pUC-618 fragment modified with aldehyde in the presence of M.Hhal, then R.Hin6I cleavage; assay type: biochemical; settings: 800 mM acetaldehyde, 50 nM M.Hhal, 100 nM pUC-618, 1 hour, room temperature
Protocol: A 618 bp fragment of plasmid […] (pUC-618), which contains a single target site for M.Hhal, was used as a DNA substrate. pUC-618 was prepared by PCR amplification of the pUC19 template (Fermentas Life Sciences) using Dir (5′-[…]) (SEQ ID No:11) and Rev (5′-[…]) (SEQ ID No:12) primers and Taq DNA Polymerase (Fermentas Life Sciences). The PCR fragment was purified by Sephacryl S-400 (GE Healthcare) following the precipitation by ethanol. pUC-618 contains a single target site for M.Hhal.

M.Sssl = M.Sssl (Spiroplasma monobiae, UniProt P15840); settings: 13 mM formaldehyde, 500 nM M.Sssl, 100 nM pUC-618, 1 hour, room temperature
M.Hpall = M.Hpall (Haemophilus parainfluenzae, UniProt P15446); settings: 13 mM formaldehyde, 1000 nM M.Hpall, 100 nM pUC-618, 1 hour, room temperature
Sequence of M.Hpall (P15446 whole entry): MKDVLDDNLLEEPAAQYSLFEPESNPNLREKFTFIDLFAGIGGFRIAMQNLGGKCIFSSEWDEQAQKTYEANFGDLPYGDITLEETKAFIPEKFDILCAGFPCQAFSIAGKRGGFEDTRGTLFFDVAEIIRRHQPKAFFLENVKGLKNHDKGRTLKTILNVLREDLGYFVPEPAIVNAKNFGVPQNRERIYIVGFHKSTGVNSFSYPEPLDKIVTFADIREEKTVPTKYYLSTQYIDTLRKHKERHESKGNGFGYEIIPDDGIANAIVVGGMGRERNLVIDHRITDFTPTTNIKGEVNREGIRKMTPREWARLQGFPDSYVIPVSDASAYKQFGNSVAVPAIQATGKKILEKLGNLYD

Sequence of M.Sssl (P15840 whole entry): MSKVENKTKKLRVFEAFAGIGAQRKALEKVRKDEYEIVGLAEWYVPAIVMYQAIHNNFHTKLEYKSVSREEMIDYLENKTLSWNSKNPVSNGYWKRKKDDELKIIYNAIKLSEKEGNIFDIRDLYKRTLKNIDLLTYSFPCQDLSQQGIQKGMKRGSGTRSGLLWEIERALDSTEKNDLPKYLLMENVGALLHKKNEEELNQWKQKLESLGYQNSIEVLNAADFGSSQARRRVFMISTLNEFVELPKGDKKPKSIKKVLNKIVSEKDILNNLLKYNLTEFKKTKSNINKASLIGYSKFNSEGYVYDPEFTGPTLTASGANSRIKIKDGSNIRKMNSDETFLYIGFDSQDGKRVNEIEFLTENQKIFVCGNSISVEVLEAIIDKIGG
Sequence of M.Hhal (P05102 whole entry, the tested form may be a part): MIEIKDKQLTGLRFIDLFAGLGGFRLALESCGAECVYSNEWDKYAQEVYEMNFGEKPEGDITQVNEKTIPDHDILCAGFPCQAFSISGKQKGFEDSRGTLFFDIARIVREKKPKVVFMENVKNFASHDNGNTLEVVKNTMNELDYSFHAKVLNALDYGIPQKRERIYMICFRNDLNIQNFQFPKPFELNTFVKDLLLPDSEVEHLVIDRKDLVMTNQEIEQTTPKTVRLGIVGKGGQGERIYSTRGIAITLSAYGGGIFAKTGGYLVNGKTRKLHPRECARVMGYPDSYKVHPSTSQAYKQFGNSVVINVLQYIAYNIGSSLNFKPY

SMILES | resistance of the GCGC site to R.Hin6I cleavage (M.Hhal) | resistance of the GCGC site to cleavage with R.Hin6I (M.Sssl) | resistance of the CCGG sites to cleavage with R.Hpall (M.Hpall)
CC=O [acetaldehyde] | nearly fully | – | –
C=O [formaldehyde] | – | 70% | 70%
